Data on four compounds can be found in publication doi:10.1101/2022.07.25.501481v1 (biorxiv, 2022).

The assay has as its target T1, BT4193 (Bacteroides thetaiotaomicron, UniProt Q8A028).
T1 sequence (Q8A028 20-736): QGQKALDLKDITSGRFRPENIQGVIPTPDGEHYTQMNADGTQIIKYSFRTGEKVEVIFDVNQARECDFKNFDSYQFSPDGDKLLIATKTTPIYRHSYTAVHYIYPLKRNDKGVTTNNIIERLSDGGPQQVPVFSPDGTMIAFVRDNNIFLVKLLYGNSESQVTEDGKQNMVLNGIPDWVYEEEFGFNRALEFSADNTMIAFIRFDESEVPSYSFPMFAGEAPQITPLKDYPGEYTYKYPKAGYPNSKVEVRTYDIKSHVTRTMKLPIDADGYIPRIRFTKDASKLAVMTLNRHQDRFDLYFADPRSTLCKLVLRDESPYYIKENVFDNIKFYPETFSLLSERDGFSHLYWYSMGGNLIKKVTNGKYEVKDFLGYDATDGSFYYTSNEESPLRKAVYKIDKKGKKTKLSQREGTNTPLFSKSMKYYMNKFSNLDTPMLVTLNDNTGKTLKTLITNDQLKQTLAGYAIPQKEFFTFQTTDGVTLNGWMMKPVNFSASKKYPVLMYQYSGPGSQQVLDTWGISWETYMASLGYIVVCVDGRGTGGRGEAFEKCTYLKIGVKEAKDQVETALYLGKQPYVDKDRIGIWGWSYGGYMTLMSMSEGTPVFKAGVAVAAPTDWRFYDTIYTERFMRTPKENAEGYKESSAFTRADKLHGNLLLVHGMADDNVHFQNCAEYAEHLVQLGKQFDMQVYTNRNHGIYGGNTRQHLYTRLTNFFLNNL
Description: GP-AMC cleavage fluorescence, dose-response four-parameter fit. Format: biochemical.

Usually IC50 stands for the concentration at which inhibition is half-maximal. A low value points to inhibition by little substance. For the compound `CC#CCn1c(N2CCC[C@@H](N)C2)nc2c1c(=O)n(Cc1nc(C)c3ccccc3n1)c(=O)n2C` [linagliptin], the IC50 was determined as 445 ± 23 nM.

The compound `N#C[C@@H]1C[C@@H]2C[C@@H]2N1C(=O)[C@@H](N)C12CC3CC(CC(O)(C3)C1)C2` [saxagliptin] gave an IC50 of 10.3 ± 0.7 nM.

Compound `N[C@@H](CC(=O)N1CCn2c(nnc2C(F)(F)F)C1)Cc1cc(F)c(F)cc1F` [sitagliptin] had a 50% inhibitory concentration (IC50) of 2150 ± 162 nM. This IC50 lies about 210-fold higher than the previous one.

In turn, `CC(C)[C@H](N)C(=O)N1CCC[C@H]1B(O)O` [talabostat] gave an IC50 of 12.4 ± 0.1 nM.
